{"source": "patent US7569726B2", "about": "“Indanone derivatives that inhibit prolyl hydroxylase” (Amgen Inc., priority 2007, dated 2009)"}
{"molecular_target": "HIF PHD2 (Homo sapiens, UniProt Q9GZT9)", "sequence (Q9GZT9 whole entry)": "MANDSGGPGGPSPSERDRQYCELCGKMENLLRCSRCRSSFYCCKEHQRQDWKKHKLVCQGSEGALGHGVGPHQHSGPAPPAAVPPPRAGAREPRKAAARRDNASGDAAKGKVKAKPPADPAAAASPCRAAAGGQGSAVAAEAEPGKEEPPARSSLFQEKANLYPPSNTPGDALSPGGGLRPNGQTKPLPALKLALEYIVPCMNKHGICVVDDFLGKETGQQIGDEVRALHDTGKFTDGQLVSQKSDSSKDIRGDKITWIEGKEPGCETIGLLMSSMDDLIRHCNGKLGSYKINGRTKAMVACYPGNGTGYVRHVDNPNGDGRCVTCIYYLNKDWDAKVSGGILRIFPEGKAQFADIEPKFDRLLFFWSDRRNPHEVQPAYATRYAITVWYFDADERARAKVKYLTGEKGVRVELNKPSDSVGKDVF", "test": "PHD2 inhibition assay (TR-FRET, VCB-Eu detection of hydroxylated P564-HIF1α peptide)", "assay_type": "biochemical", "details": "2 nM PHD2, 100 nM P564-HIF1α peptide, 0.25 μM 2-oxoglutarate, 100 μM FeCl2, pH 6, TR-FRET", "protocol": "Inhibition of HIF PHD2 activity was quantified utilizing the TR-FRET technology. HIF PHD2 catalyzes a hydroxyl modification on the proline residue of the P564-HIF1α peptide substrate (Biotin-DLEMLAPYIPMDDDFQL (SEQ ID NO: 7)) resulting in recognition and binding of the europylated Von Hippel-Lindau protein (pVHL), elongin B and elongin C heterotrimeric (VCB-Eu) complex.\nThe PHD2 inhibition assay was executed by addition of freshly dissolved FeCl2 to 178.57 μM (100 μM final concentration) in PHD2 Reaction Buffer containing 30 mM MES, pH 6, 10 mM NaCl, 0.25% Brij-35, 0.01% BSA, and 1% DMSO. 28 μL of the iron solution and 2 μL of inhibitor compounds serially diluted in 100% DMSO (5% DMSO final) were added to black polypropylene 96-well microtiter plates. To that, 10 μL of 10 nM PHD2 (2 nM final) was added to all wells of the plate except for the 8 wells of column 12 (LO control), and allowed to incubate at room temperature on the shaker for one hour. Column 6 was the HI control containing PHD2 enzyme and 5% DMSO vehicle, but no inhibitor compound. To initiate the PHD2 enzymatic reaction, 10 μL of a solution containing 500 nM P564-HIF1α peptide (100 nM final), 10 mM ascorbic acid (2 mM final), and 1.25 μM 2-oxoglutarate (α-ketoglutarate; 0.25 μM final) in PHD2 Reaction Buffer was added to all wells of the plate and allowed to incubate on the shaker at room temperature for one hour.\nThe reaction was terminated by addition of 25 μL TR-FRET Buffer (50 mM TRIS-HCl, pH 9, 100 mM NaCl, 0.05% BSA, and 0.5% Tween-20) containing 150 mM succinate (product inhibitor; 50 mM final), 75 nM streptavidin-APC (25 nM final), and 7.5 nM VCB-Eu (2.5 nM final). The TR-FRET detection reagents were placed on a shaker for 1 hour to reach binding equilibrium before reading on the Discovery platform (PerkinElmer). Europium is excited at 315 nm and phosphoresces at 615 nm with a large Stoke's shift. APC, in turn, emits at 655 nm upon excitation at 615 nm. The TR-FRET signal is measured as the ratio of the APC 655 nm signal divided by the internal europium reference 615 nm emission signal.\nThe POC (percentage of control) was determined by comparing the signal from hydroxylated peptide substrate in the enzyme reaction containing inhibitor compound with that from PHD2 enzyme with DMSO vehicle alone (HI control), and no enzyme (LO control). POC was calculated using the formula: % control (POC)=(cpd−average LO)/(average HI−average LO)*100. Data (consisting of POC and inhibitor concentration in μM) was fitted to a 4-parameter equation (y=A+((B−A)/(1+((x/C)^D))), where A is the minimum y (POC) value, B is the maximum y (POC), C is the x (cpd concentration) at the point of inflection and D is the slope factor) using a Levenburg-Marquardt non-linear regression algorithm.", "units": {"IC50": "nM"}}
{"compound": "O=C(O)CNC(=O)C1=C(O)c2c(I)cccc2C1=O", "note": "[Example 1, 2-(3-hydroxy-4-iodo-1-oxo-1H-indene-2-carboxamido)acetic acid]", "IC50": 22.5}
{"compound": "O=C(O)CNC(=O)C1=C(O)c2cc(Br)ccc2C1=O", "note": "[Example 2, 2-(5-bromo-3-hydroxy-1-oxo-1H-indene-2-carboxamido)acetic acid]", "IC50": 20.6}
{"compound": "O=C(O)CNC(=O)C1=C(O)c2cc(C(F)(F)F)ccc2C1=O", "note": "[Example 3, 2-(3-hydroxy-1-oxo-5-(trifluoromethyl)-1H-indene-2-carboxamido)acetic acid]", "IC50": 13}
{"compound": "O=C(O)CNC(=O)C1=C(O)c2c(Cl)cccc2C1=O", "note": "[Example 4, 2-(4-chloro-3-hydroxy-1-oxo-1H-indene-2-carboxamido)acetic acid]", "IC50": 9.5}
{"compound": "O=C(O)CNC(=O)C1=C(O)c2cc(F)ccc2C1=O", "note": "[Example 6, 2-(6-fluoro-3-hydroxy-1-oxo-1H-indene-2-carboxamido)acetic acid]", "IC50": 50.1}
{"compound": "O=C(O)CNC(=O)C1=C(O)c2c(F)cccc2C1=O", "note": "[Example 7]", "IC50": 25.5}
{"compound": "O=C(O)CNC(=O)C1=C(O)c2c(Cl)ccc(Cl)c2C1=O", "note": "[Example 8, 2-(4,7-dichloro-3-hydroxy-1-oxo-1H-indene-2-carboxamido)acetic acid]", "IC50": 47.2}
{"compound": "O=C(O)CNC(=O)C1=C(O)c2c(cccc2-c2ccccc2)C1=O", "note": "[Example 9, 2-(3-hydroxy-1-oxo-7-phenyl-1H-indene-2-carboxamido)acetic acid]", "IC50": 2.8}
{"compound": "O=C(O)CNC(=O)C1=C(O)c2ccc(-c3ccccc3)cc2C1=O", "note": "[Example 10, 2-(3-hydroxy-1-oxo-6-phenyl-1H-indene-2-carboxamido)acetic acid]", "IC50": 11.6}
{"compound": "COc1ccc(-c2cccc3c2C(O)=C(C(=O)NCC(=O)O)C3=O)cc1", "note": "[Example 11, 2-(3-hydroxy-4-(4-methoxyphenyl)-1-oxo-1H-indene-2-carboxamido)acetic acid]", "IC50": 3.6}
{"compound": "COc1ccc(-c2ccc3c(c2)C(O)=C(C(=O)NCC(=O)O)C3=O)cc1", "note": "[Example 12, 2-(3-hydroxy-5-(4-methoxyphenyl)-1-oxo-1H-indene-2-carboxamido)acetic acid]", "IC50": 22}
{"compound": "O=C(O)CNC(=O)C1=C(O)c2c(cccc2-c2ccc(Cl)cc2)C1=O", "note": "[Example 13, 2-(4-(4-chlorophenyl)-3-hydroxy-1-oxo-1H-indene-2-carboxamido)acetic acid]", "IC50": 3.8}
{"compound": "O=C(O)CNC(=O)C1=C(O)c2c(cccc2-c2cccc(Cl)c2)C1=O", "note": "[Example 14, 2-(4-(3-chlorophenyl)-3-hydroxy-1-oxo-1H-indene-2-carboxamido)acetic acid]", "IC50": 3}
{"compound": "O=C(O)CNC(=O)C1=C(O)c2c(cccc2-c2ccccc2Cl)C1=O", "note": "[Example 15, 2-(4-(2-chlorophenyl)-3-hydroxy-1-oxo-1H-indene-2-carboxamido)acetic acid]", "IC50": 8.5}
{"compound": "COc1ccccc1-c1cccc2c1C(=O)C(C(=O)NCC(=O)O)=C2O", "note": "[Example 16, 2-(3-hydroxy-7-(2-methoxyphenyl)-1-oxo-1H-indene-2-carboxamido)acetic acid]", "IC50": 22.1}
{"compound": "COc1cccc(-c2cccc3c2C(=O)C(C(=O)NCC(=O)O)=C3O)c1", "note": "[Example 17, 2-(3-hydroxy-7-(3-methoxyphenyl)-1-oxo-1H-indene-2-carboxamido)acetic acid]", "IC50": 3}
{"compound": "O=C(O)CNC(=O)C1=C(O)c2ccc(-c3ccccc3Cl)cc2C1=O", "note": "[Example 18, 2-(6-(2-chlorophenyl)-3-hydroxy-1-oxo-1H-indene-2-carboxamido)acetic acid]", "IC50": 3.6}
{"compound": "COc1cccc(-c2ccc3c(c2)C(=O)C(C(=O)NCC(=O)O)=C3O)c1", "note": "[Example 19, 2-(3-hydroxy-6-(3-methoxyphenyl)-1-oxo-1H-indene-2-carboxamido)acetic acid]", "IC50": 5.5}
